According to PMC4666306 (European journal of medicinal chemistry, 2015):

What was measured:
[1] = test system: BaF3 cells transformed with FLT3-ITD containing gatekeeper (F691L) mutation; conditions: 48 h post treatment
[2] = test system: BaF3 cells transformed with FLT3-ITD containing activation loop (D835V) mutation; conditions: 48 h post treatment

Fc1ccc(-c2cnc3cc(-c4ccco4)ccn23)cc1 [Compound 21, 3-(4-Fluorophenyl)-7-(furan-2-yl)imidazo[1,2-a]pyridine]
GI50 +ITD F691L [1]: ineffective
GI50 +ITD D835V [2]: ineffective
